{"source": "patent US9597406B2", "about": "“Controlled release method for a pharmaceutical composition composed of chelating complex micelles” (Original BioMedicals Co., Ltd, priority 2012, dated 2017)", "key": {"[1]": {"assay": "MTT cell viability test of doxorubicin CCM (FePD) with and without deferoxamine", "type": "cell-based, mouse", "details": "mouse, BNLCL.2 mouse embryonic liver cells, 2 h incubation, BNLCL.2 cells", "protocol": "(§1) The cell viability test of doxorubicin CCM (FePD) was examined with and without adding metal chelator deferoxamine. MTT (3-(4,5-cimethylthiazol-2-yl)-2,5-diphenyl tetrazolium bromide) assay was used to assess the cytotoxicity of cells treated with FePD and deferoxamine.\n(§2) The mouse embryonic liver cells (BNLCL.2) (100 μL) were inoculated onto a 96-well plate with density 1×10^5 cells/mL and cultured for 24 hr at 37° C. with 5% CO2 before subjecting to the test. After removal of supernatant, 100 μL of each sample was added to the cells and incubated for 2 hours (Table 1). The samples were sterilized by using 0.22 μm filters prior to treating the cells. The plate was then washed with PBS (phosphate buffered saline) and incubated with fresh medium for 24 hours. After removal of supernatant and washed with PBS, 10 μL MTT solution was added to the cells and incubated for 4 hours. The absorbance at 570 nm was measured (BioTek, Synergy TM2, USA)."}, "[2]": {"tested_on": "mouse embryonic liver cells (BNLCL.2)", "assay": "MTT cell viability test of doxorubicin CCM (FePD) with and without deferoxamine", "type": "cell-based", "details": "4 μM, 2 h incubation, then 24 h fresh medium, BNLCL.2 cells, 4 µM", "protocol": "as §1, §2"}}, "data": [{"smiles": "CC(=O)N(O)CCCCCNC(=O)CCC(=O)N(O)CCCCCNC(=O)CCC(=O)N(O)CCCCCN", "note": "[deferoxamine]", "values": [{"measurement": "viability at 2 h, 13.5 µM", "setting": "[1]; 13.5 μM, then 24 h fresh medium", "value": 104, "unit": "%"}]}, {"smiles": "COc1cccc2c1C(=O)c1c(O)c3c(c(O)c1C2=O)C[C@@](O)(C(=O)CO)C[C@@H]3O[C@H]1C[C@H](N)[C@H](O)[C@H](C)O1", "note": "[doxorubicin]", "values": [{"measurement": "viability at 2 h, 4 μM", "setting": "[1]; 4 μM, then 24 h fresh medium", "value": 74.7, "unit": "%"}, {"measurement": "viability at 2 h, 4 μM", "setting": "[1]; Group G: 4 μM + deferoxamine (13.5 μM)", "value": 78.3, "unit": "%"}, {"measurement": "Cell viability (%)", "setting": "[2]", "value": 74.7292, "unit": "%"}]}]}
